{"source": "paper PMC3489043", "about": "(Nature neuroscience, 2011)", "key": {"[1]": {"test_system": "mutant α7 AChRs", "format": "binding, human"}, "[2]": {"biological_target": "mutant α7 AChRs (Homo sapiens, UniProt P36544, W77F)", "sequence (P36544 23-502 W77F)": "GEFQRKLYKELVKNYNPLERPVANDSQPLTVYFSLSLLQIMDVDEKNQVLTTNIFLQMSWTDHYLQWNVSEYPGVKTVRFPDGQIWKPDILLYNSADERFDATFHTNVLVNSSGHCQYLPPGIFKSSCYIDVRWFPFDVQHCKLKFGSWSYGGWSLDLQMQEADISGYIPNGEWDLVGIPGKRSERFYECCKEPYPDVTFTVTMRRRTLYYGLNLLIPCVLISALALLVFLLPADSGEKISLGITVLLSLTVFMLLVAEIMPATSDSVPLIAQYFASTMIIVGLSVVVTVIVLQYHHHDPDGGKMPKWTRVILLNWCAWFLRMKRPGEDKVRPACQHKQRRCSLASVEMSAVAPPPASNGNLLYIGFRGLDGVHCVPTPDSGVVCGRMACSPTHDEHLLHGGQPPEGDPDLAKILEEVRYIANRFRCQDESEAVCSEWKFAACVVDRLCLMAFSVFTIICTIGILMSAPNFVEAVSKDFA", "format": "binding"}, "[3]": {"test_system": "α7–AChBP chimera", "test": "Radiolabeled ligand binding to the α7–AChBP chimera", "design": "species or system human / Lymnaea stagnalis"}, "[4]": {"biological_target": "human α7 AChR (Homo sapiens, UniProt P36544)", "sequence (P36544 23-502)": "as the sequence (P36544 23-502 W77F) above, with F55W counted along it", "format": "binding"}, "[5]": {"test_system": "muscle AChRs", "details": "cited from earlier work"}, "[6]": {"test_system": "α7 AChRs", "details": "cited from earlier work"}}, "note": "Like-named read-outs stand apart in the source and are kept apart here.", "data": [{"compound": "Clc1ccc(C2CC3CCC2N3)cn1", "note": "(stereo not shown) [epibatidine]", "values": [{"measurement": "cooperativity of epibatidine binding", "setting": "[1]", "value": "maintained cooperativity"}, {"measurement": "increase of the apparent dissociation constant by phenylalanine substitutions", "setting": "[1]", "value": "4- to 2,200 fold"}, {"measurement": "cooperativity of epibatidine binding", "setting": "[2]", "value": "markedly reduced cooperativity"}, {"measurement": "binding of radiolabeled ligand to the α7–AChBP chimera", "setting": "[3]; radiolabeled ligand, Supplementary Fig. 2", "value": "bound"}, {"measurement": "epibatidine binding to the α7 AChR", "setting": "[4]", "value": "cooperatively and with high affinity"}]}, {"compound": "C[N+](C)(C)CCO", "note": "[choline]", "values": [{"measurement": "efficacy at muscle AChRs", "setting": "[5]", "value": "low efficacy"}, {"measurement": "efficacy at α7 AChRs", "setting": "[6]", "value": "high efficacy"}]}, {"compound": "CC(=O)OCC[N+](C)(C)C", "note": "[ACh, acetylcholine]", "values": [{"measurement": "change of agonist affinity for the α7 AChR", "setting": "[1]; substitutions at Arg182, Glu185, Glu181 (loop C) and Gln37, steady-state binding", "value": "increased affinity"}, {"measurement": "cooperativity of ACh binding", "setting": "[4]; steady-state binding", "value": "highly cooperative"}]}, {"compound": "α-bungarotoxin", "values": [{"measurement": "binding of radiolabeled ligand to the α7–AChBP chimera", "setting": "[3]", "value": "bound"}]}]}
